This is an account of results in ChEMBL document CHEMBL1201862, “PubChem BioAssay data set” (2004).

The nature of test [1]: Luminescence Cell-Based Dose Retest to Confirm Inhibitors of Cancer Stem Cells. [Related pubchem assays (depositor defined):AID2717, AID2721]. It counts as functional. The note with it: Homo sapiens.
Test [2] can be described thus: HepG2 cell cytotoxicity, dose response, cytotoxicity control for non-replicating M. tuberculosis project (AID 489018). The note with it: Mycobacterium tuberculosis. It counts as functional.
Test [3] in a line: THP-1 cell cytotoxicity, dose response, cytotoxicity control for non-replicating M. tuberculosis project (AID 489025). It is filed as functional.
Test [4] is described as follows: cells. It counts as functional.
Test [5] addresses Intestinal-type alkaline phosphatase (Mus musculus, UniProt P24822). Briefly: PubChem AID 488785. It is filed as functional.
The target in test [6] is T1, Alkaline phosphatase, tissue-nonspecific isozyme (Homo sapiens, UniProt P05186).
T1 sequence (P05186 whole entry): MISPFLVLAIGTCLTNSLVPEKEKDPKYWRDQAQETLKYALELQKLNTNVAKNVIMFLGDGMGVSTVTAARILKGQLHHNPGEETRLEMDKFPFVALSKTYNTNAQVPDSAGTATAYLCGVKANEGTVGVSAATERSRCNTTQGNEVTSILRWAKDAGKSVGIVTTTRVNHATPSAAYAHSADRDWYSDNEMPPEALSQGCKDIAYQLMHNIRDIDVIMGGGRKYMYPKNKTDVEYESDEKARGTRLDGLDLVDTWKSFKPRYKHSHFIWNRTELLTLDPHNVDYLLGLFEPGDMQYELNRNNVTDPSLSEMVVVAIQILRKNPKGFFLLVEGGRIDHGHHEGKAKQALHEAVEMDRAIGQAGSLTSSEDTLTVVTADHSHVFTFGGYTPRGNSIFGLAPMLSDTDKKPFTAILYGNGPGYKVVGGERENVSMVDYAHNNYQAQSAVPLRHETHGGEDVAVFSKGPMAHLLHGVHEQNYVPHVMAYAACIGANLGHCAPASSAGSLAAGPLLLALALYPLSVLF
Briefly: TNAP enzyme inhibition by screening hits, dose response, selectivity assay for mouse IAP inhibitor project, biochemical, human TNAP, uHTS hits (AID 488906). It is filed as functional.

Test [7] concerns the target Intestinal-type alkaline phosphatase (Homo sapiens, UniProt P09923). Briefly: inhibition of human intestinal alkaline phosphatase – biochemical, dose response (AID 488876). It counts as functional.
The nature of test [8]: inhibitors of firefly luciferase expression or activity, dose response, H4 neuroglioma cells, luminescence (AID 1990). It is filed as functional, cell-based.
Test [9] is described as follows: Luminescence Cell-Based Dose Response HTS to Identify Inhibitors of 5'UTR Stem-Loop Driven Prion Protein mRNA Translation in H4 Neuroglioblastoma Cells. [Related pubchem assays: 1827 (Project Summary), 1813 (Primary HTS)]. It counts as functional.
Test [10] can be described thus: inhibitors of SNCA 5'UTR-driven reporter translation, confirmation, H4 neuroglioma cells, luminescence (AID 1988). It is filed as functional, cell-based.
The nature of test [11]: cells. It is filed as functional, cell-based.
The subject of test [12] is BJ. Briefly: cytotoxicity toward BJ-TERT fibroblasts, dose response, cell-based, RAS-independent, luminescence (AID 1933). It counts as functional. The note with it: Homo sapiens.
Test [13] deals with BJ. The experiment in a line: cytotoxicity toward Ras-transformed BJeLR fibroblasts, dose response, cell-based, alamar blue fluorescence, cherrypicked samples (AID 2631).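 Note: confirmatory dose-response assay in RAS-dependent BJ fibroblasts engineered with TERT, LT and ST, with cytotoxicity read by fluorescence.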 It counts as functional. The following applies: Homo sapiens. For orientation: The colour change of resazurin is a common sign of viable cells or microbes.
Test [14] in a line: inhibitors of SNCA 5'UTR-driven translation, confirmation, luminescence, H4 neuroglioblastoma cells, dose confirmation (AID 2454).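 Note: H4 neuroglioblastoma cells carrying an alpha-synuclein 5'UTR luciferase reporter; potency for inhibition of the luciferase signal.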 It is filed as functional, cell-based.
A short description of test [15]: cytotoxicity toward DRD oncogenic fibroblasts, dose response, cell-based, non-viral oncogenic, luminescence (AID 1934). It is filed as functional. The following applies: Homo sapiens.
The subject of test [16] is BJ. Briefly: cytotoxicity toward BJ-TERT-LT-ST fibroblasts, dose response, cell-based, RAS-independent, luminescence (AID 1935).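 Note: BJ fibroblasts immortalized with TERT plus LT and ST oncogenes.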 It is filed as functional. The following applies: Homo sapiens.
Test [17] concerns BJ. Briefly: cells. The note with it: Homo sapiens. It counts as functional, cell-based.
Test [18] is described as follows: luciferase reporter signal reduction – luminescence, H4-C neuroglioblastoma cells, dose response (AID 2458).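 Note: H4 neuroglioblastoma cells stably carrying a luciferase reporter gene fusion.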 It counts as functional, cell-based.
Test [19] is described as follows: cytotoxicity in HEK-293T cells, dose response, cytotoxicity control for TCR NF-kB inhibitor project, luminescence, T-cell screen hits (AID 489026).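 Note: cells exposed to compound about 14 hours before the viability readout.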 It is filed as functional, cell-based.
Test [20] concerns the target T2, Rac GTPase-activating protein 1 (Homo sapiens, UniProt Q9H0H5).
T2 sequence (Q9H0H5 whole entry): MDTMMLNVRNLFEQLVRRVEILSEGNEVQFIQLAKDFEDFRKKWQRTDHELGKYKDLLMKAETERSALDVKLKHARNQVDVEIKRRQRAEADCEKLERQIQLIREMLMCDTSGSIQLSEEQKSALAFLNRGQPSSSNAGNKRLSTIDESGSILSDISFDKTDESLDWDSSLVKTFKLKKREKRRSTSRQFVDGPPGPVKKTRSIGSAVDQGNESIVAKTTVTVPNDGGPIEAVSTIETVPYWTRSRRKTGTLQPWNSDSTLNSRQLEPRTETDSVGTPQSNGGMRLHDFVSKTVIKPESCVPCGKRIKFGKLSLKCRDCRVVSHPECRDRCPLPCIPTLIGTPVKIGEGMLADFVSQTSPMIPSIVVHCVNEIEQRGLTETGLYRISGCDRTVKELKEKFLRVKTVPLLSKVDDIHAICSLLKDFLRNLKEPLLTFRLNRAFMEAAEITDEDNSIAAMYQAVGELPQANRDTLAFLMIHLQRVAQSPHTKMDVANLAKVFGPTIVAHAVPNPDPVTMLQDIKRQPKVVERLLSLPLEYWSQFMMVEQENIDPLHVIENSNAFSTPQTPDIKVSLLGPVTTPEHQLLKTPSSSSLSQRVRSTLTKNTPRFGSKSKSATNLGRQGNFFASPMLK
Briefly: MgcRacGAP GTPase-activating activity inhibitors, confirmation, biochemical, ADP Hunter fluorescence, primary and confirmatory (AID 624330). It counts as functional.

The target of test [21] is DNA dC->dU-editing enzyme APOBEC-3G (Homo sapiens, UniProt Q9HC16). The experiment in a line: Dose Response confirmation of small molecule APOBEC3G DNA Deaminase Inhibitors via a fluorescence-based single-stranded DNA deaminase assay. [Related pubchem assays (depositor defined):AID493012, AID493028]. It is filed as functional.
The target of test [22] is SUMO-activating enzyme (Homo sapiens, UniProt Q9UBT2). The experiment in a line: SUMOylation inhibitor hit validation, confirmation, SUMOylation inhibitor project, biochemical, AlphaScreen (AID 2018). It is filed as functional.
For test [23], the system named is INS1. Briefly: beta cell apoptosis inhibitors, cytokine rescue, dose response, luminescence, retest (AID 449756).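 Note: cell death triggered by IL-1 beta plus TNF-alpha plus IFN-gamma mixture; protective hits raise ATP signal compared with cytokine alone wells.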 It counts as functional, cell-based. The following applies: Rattus norvegicus.
Test [24] can be described thus: Vero E6 cell cytotoxicity, dose response, cytotoxicity control for non-replicating M. tuberculosis project, secondary assay (AID 492998). It is filed as functional, VeroE6. The note with it: Vero C1008.
Test [25] in a line: Luminescence Cell-Based Dose Response HTS to Identify Activators of Luciferase Translation or Activity in H4 […] Cells. [Related pubchem assays: 1829 (Project Summary), 1814 (Primary HTS)]. It is filed as functional.
Test [26] relates to H4. Briefly: Luminescence Cell-Based Dose Response HTS to Identify Activators of 5'UTR Stem-Loop Driven Prion Protein mRNA Translation in H4 Neuroglioblastoma Cells. [Related pubchem assays: 1829 (Project Summary), 1814 (Primary HTS)]. The following applies: Homo sapiens. It counts as functional.
The nature of test [27]: Luminescence Cell-Based Dose Confirmation HTS to Identify Activators of 5'UTR Stem-Loop Driven Alpha-Synuclein mRNA Translation in H4 Neuroglioblastoma Cells. [Related pubchem assays: 1829 (Project Summary), 1814 (Primary HTS)]. It counts as functional.
Test [28] can be described thus: microbe, parasite or virus in culture. The following applies: Mycobacterium tuberculosis. It counts as functional.
Test [29] has as its target Paired box protein Pax-8 (Homo sapiens, UniProt Q06710). Briefly: inhibitors of PAX8-driven TPO luciferase reporter, dose response, RMG-I cells, cherry-pick (AID 687027).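 Note: luciferase reporter driven by Pax8 target thyroperoxidase promoter measured by SteadyGlo luminescence.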 It counts as functional, cell-based.
Test [30] is described as follows: growth suppression of beta-catenin-knockout colon cells, dose response, cell-based, HCT116, human colon tumor (AID 1045).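 Note: HCT116 colon tumor cells with beta catenin knocked out; cells exposed to compound for 60 hours.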 It is filed as functional.
Test [31] can be described thus: Luminescence Cell-Based Dose Response to Identify Activators of 5'UTR Stem-Loop Driven Prion Protein mRNA Translation in H4-C Neuroglioblastoma Cells. [Related pubchem assays: 1829 (Project Summary), 1814 (Primary HTS)]. It counts as functional.
For test [32], the target named is Heat shock protein HSP 90-alpha (Homo sapiens, UniProt P07900). It counts as functional, organism-based.
Test [33] can be described thus: Luminescence Cell-Based Dose Confirmation to Identify Activators of 5'UTR Stem-Loop Driven Alpha-Synuclein mRNA Translation in H4 Neuroglioblastoma Cells. [Related pubchem assays: 1829 (Project Summary), 1814 (Primary HTS)]. It is filed as functional.
Test [34] can be described thus: Luminescence Cell-Based Dose Response to Identify Activators of Luciferase Translation or Activity in H4-C Neuroglioblastoma Cells. [Related pubchem assays: 1829 (Project Summary), 1814 (Primary HTS)]. It counts as functional.
Test [35] is described as follows: growth suppression of PTEN-null colon cells, dose response, cell-based, HCT116 PTEN knockout (AID 1047).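 Note: HCT116 colon tumor cells with PTEN knocked out; cells exposed to compound for 60 hours before readout; potency for loss of cell viability measured by luminescence.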 It is filed as functional.

The source made the active and inactive calls.

Chain of DNA dC->dU-editing enzyme APOBEC-3G (Q9HC16 whole entry): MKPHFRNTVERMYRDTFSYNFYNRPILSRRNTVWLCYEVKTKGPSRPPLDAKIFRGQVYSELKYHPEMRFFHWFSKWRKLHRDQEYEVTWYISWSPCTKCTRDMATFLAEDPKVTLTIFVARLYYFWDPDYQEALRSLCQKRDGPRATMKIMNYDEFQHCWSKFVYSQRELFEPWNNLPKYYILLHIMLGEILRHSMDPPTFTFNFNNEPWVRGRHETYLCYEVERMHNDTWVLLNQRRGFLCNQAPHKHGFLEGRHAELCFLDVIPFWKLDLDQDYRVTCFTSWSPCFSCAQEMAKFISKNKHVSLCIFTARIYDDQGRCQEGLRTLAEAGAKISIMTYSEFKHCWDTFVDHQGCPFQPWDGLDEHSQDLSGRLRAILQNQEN
Chain of SUMO-activating enzyme (Q9UBE0 whole entry): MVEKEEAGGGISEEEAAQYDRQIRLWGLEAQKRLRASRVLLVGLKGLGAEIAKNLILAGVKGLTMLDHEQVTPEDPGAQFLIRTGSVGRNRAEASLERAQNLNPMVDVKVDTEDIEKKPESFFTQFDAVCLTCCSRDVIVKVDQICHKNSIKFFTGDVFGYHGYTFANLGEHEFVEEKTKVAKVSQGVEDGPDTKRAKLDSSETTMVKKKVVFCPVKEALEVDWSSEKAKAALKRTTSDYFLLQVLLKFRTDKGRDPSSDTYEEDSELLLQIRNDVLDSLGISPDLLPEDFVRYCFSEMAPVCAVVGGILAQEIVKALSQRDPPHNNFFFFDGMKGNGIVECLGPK
Chain of SUMO-activating enzyme (Q9UBT2 whole entry): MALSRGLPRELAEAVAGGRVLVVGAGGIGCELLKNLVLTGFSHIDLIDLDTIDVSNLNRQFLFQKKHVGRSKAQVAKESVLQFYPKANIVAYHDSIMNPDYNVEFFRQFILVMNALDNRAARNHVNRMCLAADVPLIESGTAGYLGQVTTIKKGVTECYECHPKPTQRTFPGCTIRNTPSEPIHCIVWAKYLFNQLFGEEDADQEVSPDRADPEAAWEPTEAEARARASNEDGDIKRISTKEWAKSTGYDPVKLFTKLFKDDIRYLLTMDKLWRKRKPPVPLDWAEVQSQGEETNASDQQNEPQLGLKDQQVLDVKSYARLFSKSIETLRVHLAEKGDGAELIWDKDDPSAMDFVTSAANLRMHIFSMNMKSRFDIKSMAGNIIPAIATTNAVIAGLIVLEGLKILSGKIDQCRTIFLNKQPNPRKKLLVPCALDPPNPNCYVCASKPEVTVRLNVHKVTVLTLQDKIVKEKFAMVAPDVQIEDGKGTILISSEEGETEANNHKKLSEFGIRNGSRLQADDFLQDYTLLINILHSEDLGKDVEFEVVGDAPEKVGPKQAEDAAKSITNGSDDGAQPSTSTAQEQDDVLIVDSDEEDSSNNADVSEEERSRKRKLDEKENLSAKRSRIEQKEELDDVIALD
Chain of Paired box protein Pax-8 (Q06710 whole entry): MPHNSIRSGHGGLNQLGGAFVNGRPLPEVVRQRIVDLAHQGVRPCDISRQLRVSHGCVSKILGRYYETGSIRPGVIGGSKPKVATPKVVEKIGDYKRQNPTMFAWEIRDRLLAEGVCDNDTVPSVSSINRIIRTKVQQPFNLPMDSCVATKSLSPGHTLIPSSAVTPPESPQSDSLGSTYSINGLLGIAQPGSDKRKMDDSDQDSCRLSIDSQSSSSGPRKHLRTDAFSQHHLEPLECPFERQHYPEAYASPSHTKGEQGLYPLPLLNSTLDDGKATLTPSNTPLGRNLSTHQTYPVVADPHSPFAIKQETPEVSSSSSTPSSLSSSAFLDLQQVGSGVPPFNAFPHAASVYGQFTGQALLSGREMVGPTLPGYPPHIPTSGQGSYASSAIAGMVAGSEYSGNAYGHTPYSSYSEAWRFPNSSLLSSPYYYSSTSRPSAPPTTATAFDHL
Chain of Intestinal-type alkaline phosphatase (Mus musculus, UniProt P24822) (P24822 whole entry): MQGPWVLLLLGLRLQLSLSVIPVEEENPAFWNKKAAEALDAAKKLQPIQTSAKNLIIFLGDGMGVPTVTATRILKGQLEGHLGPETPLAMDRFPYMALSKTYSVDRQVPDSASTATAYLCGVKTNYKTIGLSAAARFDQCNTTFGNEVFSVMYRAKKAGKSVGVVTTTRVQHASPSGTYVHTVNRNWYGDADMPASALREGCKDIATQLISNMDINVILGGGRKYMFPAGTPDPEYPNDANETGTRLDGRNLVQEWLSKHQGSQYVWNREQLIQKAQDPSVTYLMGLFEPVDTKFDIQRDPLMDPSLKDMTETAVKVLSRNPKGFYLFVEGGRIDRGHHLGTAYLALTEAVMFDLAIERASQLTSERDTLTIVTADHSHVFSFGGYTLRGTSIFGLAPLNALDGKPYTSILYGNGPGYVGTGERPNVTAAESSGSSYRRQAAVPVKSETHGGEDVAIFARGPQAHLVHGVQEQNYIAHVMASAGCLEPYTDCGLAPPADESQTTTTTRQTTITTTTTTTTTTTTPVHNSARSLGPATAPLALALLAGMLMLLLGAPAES
Chain of Intestinal-type alkaline phosphatase (Homo sapiens, UniProt P09923) (P09923 whole entry): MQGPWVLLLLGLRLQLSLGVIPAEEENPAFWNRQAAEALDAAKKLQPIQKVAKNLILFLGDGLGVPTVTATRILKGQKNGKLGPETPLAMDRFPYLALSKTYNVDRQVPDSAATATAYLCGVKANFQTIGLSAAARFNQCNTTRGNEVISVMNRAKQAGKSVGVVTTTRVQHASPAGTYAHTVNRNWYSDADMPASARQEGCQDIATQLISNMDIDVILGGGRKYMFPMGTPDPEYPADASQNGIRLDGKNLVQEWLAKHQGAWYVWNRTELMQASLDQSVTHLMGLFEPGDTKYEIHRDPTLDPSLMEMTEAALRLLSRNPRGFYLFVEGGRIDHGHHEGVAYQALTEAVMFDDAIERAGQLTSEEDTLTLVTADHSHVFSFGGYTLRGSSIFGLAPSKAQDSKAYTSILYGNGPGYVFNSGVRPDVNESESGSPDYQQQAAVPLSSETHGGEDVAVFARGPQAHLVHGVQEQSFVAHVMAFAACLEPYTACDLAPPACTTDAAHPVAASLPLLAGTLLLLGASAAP

Broadly, the AC50 is the concentration giving half of the maximal activity seen. In general, IC50 refers to the concentration at which inhibition is half-maximal. In the case of `CCC(C)NCCOc1ccc(C(C)(C)c2ccccc2)cc1` (stereo unspecified), the concentration at half-maximal activity (AC50) in test [1] was 1.63 µM (active). The CC50 was 19.5 µM (active) in test [2] and 27.6 µM (active) in test [3]. Further, the IC50 in test [4] was 11.7 µM (active).
As for `COc1ccc(C2CC(c3ccccc3Cl)=NN2c2ccc(S(N)(=O)=O)cc2)cc1` (stereo unspecified), the half-maximal inhibitory concentration (IC50) in [5] is 6.02 µM (active); in test [6], > 100 µM (inactive); in test [7], > 100 µM (inactive).
Usually EC50 stands for the concentration that produces a half-maximal response. For the compound `COc1ccccc1N1CCN(C(=O)c2cc(=O)c3cc(C)cc(C)c3o2)CC1`, the EC50 in test [8] is 0.101 µM (active); in test [9], 0.127 µM (active); in test [10], < 0.1 µM (active); in test [11], 0.415 µM (active); in test [12], 0.346 µM (active); in [13], < 0.104 µM (active). Moreover, the EC50 in test [14] is 0.259 µM (active); in test [15], 0.375 µM (active); in [16], 0.229 µM (inconclusive); in test [17] it was 0.938 µM (active); in test [18], 0.289 µM (active). Further, the IC50 in test [19] was > 80 µM (inactive).
Consider `CC(C)Cn1c(-c2ccc(Br)o2)n[nH]c1=S`, for which the IC50 in test [20] is 105 µM (active); in test [21] it was 2.83 µM (active).
In the case of `O=C1N(c2ccc(Cl)c(Cl)c2)CN(Cc2ccccc2)CN1n1cnnc1`, in [22], the IC50 is > 100 µM (inactive).
As to `CCCCCn1c(=O)c(C(=O)Nc2nc3ccccc3[nH]2)c(O)c2ccccc21`, the CC50 in test [2] was > 20 µM (active); in [3], 6.69 µM (active); in test [24], 6.21 µM (active). Besides, in test [4], the IC50 was 7.7 µM (active). Also, the AC50 in [23] is 6.54 µM (active).
With `Cc1cc(NC(=O)CSc2nc3ccccc3c(=O)n2C2CCCC2)no1`, the 50% effective concentration (EC50) is 4.73 µM (inconclusive) in test [8]; < 0.1 µM (active) in [9]; < 0.1 µM (active) in test [10]; > 12 µM (not active) in test [11]; 1.89 µM (inconclusive) in [14]; 1.5 µM (active) in test [18]. Besides, in test [19], the IC50 is > 80 µM (inactive).
In the case of `O=C(Cc1ccc(Cl)cc1Cl)Nc1cccc(S(=O)(=O)Nc2ccccc2F)c1`, the IC50 in test [21] was 29.4 µM (active).
With `Cc1cc(-c2nnc(S)n2/N=C/C(Br)=C/c2ccccc2)[nH]n1`, the 50% effective concentration (EC50) in test [25] was < 0.1 µM (active); in test [26] it was > 120 µM (not active); in test [27], 77.7 µM (active); in [30], 1.52 µM (active); in [31], > 12 µM (not active); in test [33], 0.943 µM (active). Besides, the EC50 in test [34] is 8.65 µM (active); in [35] it was 1.96 µM (active). Moreover, the CC50 in test [2] is > 20 µM (active); in test [28] it was 29.3 µM (active); in test [3] it was 11.1 µM (active); in test [24] it was 9.01 µM (active). For the same compound, the concentration at half-maximal activity (AC50) in test [29] was 2.78 µM (active); in [23], > 60 µM (inactive); in test [32] it was 10.4 µM (active). Moreover, in test [4], the IC50 is 4.68 µM (active).
